Test results reported in patent publication US11814364B2, “Pyridine N-oxide derivatives useful as factor XIa inhibitors” (Janssen Pharmaceutica NV, priority 2021, dated 2023).
Read-outs that look alike come from different tables or passages of the source. *1 amine or outer side, *2 acyl side, *3 side chain or, on linkers, in order; H or OH if unused. The star is where a group is joined. Lys(5-TAMRA) = CN(C)c1ccc2c(-c3ccc(C(=O)NCCCC[C@H](N[*:1])C(=O)[*:2])cc3C(=O)[O-])c3ccc(N(C)C)cc3[o+]c2c1; 5FAM = O=C1OC2(c3ccc(O)cc3Oc3cc(O)ccc32)c2ccc(C(=O)*)cc21

Columns and labels:
Format in all cases: biochemical
Factor XIa [1] = biological target: T1, Factor XIa (Homo sapiens, UniProt P03951); assay: Factor XIa inhibition FLINT assay with fluorophore-quencher peptide substrate 5Fam-[…]-K5Tamra (end point EP or kinetic KIN reads); conditions: end point read at 30 min; read-out: FXIa (EP) IC50
T1 sequence (P03951 388-625 limits assumed): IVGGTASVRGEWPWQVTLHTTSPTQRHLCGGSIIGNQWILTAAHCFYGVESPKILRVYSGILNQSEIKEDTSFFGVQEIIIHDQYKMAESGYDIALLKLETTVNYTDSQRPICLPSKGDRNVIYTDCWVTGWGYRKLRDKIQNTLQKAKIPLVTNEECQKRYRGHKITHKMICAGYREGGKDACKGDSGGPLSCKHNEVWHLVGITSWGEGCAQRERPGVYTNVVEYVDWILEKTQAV
T1 sequence (P03951 19-387 partner limits assumed): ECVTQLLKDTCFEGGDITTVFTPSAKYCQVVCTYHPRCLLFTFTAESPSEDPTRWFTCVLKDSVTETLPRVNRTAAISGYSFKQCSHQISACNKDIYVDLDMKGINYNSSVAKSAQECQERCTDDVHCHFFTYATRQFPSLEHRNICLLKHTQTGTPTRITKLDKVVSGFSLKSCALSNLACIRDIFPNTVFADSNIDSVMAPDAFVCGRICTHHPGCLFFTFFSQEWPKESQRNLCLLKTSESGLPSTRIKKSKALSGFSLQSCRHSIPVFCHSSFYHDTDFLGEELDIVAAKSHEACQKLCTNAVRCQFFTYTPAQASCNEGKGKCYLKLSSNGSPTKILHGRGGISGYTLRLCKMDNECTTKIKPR
Excerpt: Factor XIa inhibition assay utilizing a fluorophore-quencher pair peptide substrate A fluorescence intensity (FLINT) based assay was used to monitor inhibition of Factor XIa. The peptide substrate, 5Fam-[…]-K5Tamra (purchased from New England Peptide) was chosen based on the FXI sequence. Conversion of zymogen FXI to its activated form, FXIa, occurs by proteolytic cleavage by […] at two sites, Arg146 and Arg180. The custom peptide used in this assay was based on the Arg146 cleavage site of FXI. The peptide substrate was designed with a fluorophore-quencher pair, where the fluorescence is quenched until FXIa cleaves the 8-mer peptide after the Arg residue.
Test compound(s) were run in an 11-point, 3-fold serial dilution with a final top compound concentration of 100 nM. Final DMSO in assay was 2%. FXIa was preincubated with compound for 30-minutes and then substrate was added to initiate the reaction. The assay was run with either end point (EP) reads at 30 min or kinetic (KIN) reads at 5 min intervals over 30 minutes. […] More specifically, the assay was run as follows: • 100 nL of 0.01 mM test compound was dispensed into black 384-well non-binding Greiner BioOne 784900 plate for 0.1 μM final concentration; • 5 μL of 1× assay buffer was dispensed to column 24 (low control) and 5 μL 2× Factor XIa solution was dispensed to columns 1-23 (column 23 high control); • the plate was centrifuged with a “cover” plate at 500 rpm for 1 min • the plate was pre-incubated for 30 minutes at room temperature with plate covered; • 5 μL of 2×5Fam-[…]-K5Tamra peptide substrate was dispensed into the entire plate, columns 1-24; • the plate was centrifuged with a “cover” plate at 500 rpm for 1 min; • the plate was read monitoring fluorescence intensity on the BMG PHERAStar at room temperature, using fluorescence module 485 nm/520 nm.
Percent inhibition (IC50) curves were generated per compound tested, and data was analyzed using a 4-parameter logistic fit using GeneData Screener. The relative fluorescence unit (RFU) values were normalized to percent inhibition using the following equation: % inhibition=((HC−LC)−(compound−LC)/(HC−LC))*100
An 11-point dose response curve for the test compound(s) was generated using GENDATA to determine IC50 value based on the following equation: Y=Bottom+(Top−Bottom)/(1+10^((log IC50−X)*HillSlope))
Results listed in columns with […] designation were measured using endpoint reads where a single fluorescence reading was measured for each well at a 30 min timepoint.

human plasma kallikrein = human plasma kallikrein (Homo sapiens, UniProt P03952); assay: Kallikrein inhibition FLINT assay with quenched AMC peptide substrate Z-Gly-Pro-Arg-AMC (end point EP or kinetic KIN reads)
Sequence of human plasma kallikrein (P03952 391-638 limits assumed): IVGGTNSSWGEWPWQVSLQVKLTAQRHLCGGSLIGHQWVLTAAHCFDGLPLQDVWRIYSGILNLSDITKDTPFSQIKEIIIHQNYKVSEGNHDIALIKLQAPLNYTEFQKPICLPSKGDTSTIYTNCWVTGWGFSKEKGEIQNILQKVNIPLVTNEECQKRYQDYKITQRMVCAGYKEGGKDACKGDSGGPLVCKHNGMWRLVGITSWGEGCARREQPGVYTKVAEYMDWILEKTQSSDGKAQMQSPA
Sequence of human plasma kallikrein (P03952 20-390 partner limits assumed): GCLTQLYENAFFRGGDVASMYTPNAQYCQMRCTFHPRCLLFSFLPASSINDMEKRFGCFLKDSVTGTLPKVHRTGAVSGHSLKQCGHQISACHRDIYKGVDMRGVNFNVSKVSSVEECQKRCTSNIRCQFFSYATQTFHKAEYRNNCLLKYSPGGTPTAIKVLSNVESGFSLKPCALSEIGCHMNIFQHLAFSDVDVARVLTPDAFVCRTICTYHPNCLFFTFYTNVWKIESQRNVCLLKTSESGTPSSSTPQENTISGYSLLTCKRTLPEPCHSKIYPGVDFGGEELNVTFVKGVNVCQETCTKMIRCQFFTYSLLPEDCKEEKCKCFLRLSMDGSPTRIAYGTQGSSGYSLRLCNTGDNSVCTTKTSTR
Procedure, shortened: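 Enzyme and compound were preincubated 30 min before adding 50 μM AMC substrate in pH 7.5 Tris/NaCl/CaCl2/BSA/CHAPS buffer. AMC release was read at 30 min endpoint or every 5 min.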

Factor XIa [2] = biological target: T1, Factor XIa; assay: Factor XIa inhibition FLINT assay with fluorophore-quencher peptide substrate 5Fam-[…]-K5Tamra (end point EP or kinetic KIN reads); conditions: fit to a substrate inhibition model
[3] = end point read at 30 min, read-out: Kallikrein (EP) IC50
[4] = kinetic reads at 5 min intervals over 30 min, read-out: Kallikrein (KIN) IC50

| Compound | IC50 (Factor XIa [1]) | IC50 (human plasma kallikrein; [3]) | IC50 (human plasma kallikrein; [4]) | Km (Factor XIa [2]; peptide substrate of FXIa) | kcat (Factor XIa [2]; peptide substrate of FXIa) | Ki (Factor XIa [2]; substrate inhibition constant) |
| --- | --- | --- | --- | --- | --- | --- |
| Nc1ccc(-c2cnn(C(CC3CC3)c3ccc(-c4c(-n5cnnn5)ccc(Cl)c4F)c[n+]3[O-])c2)cc1 (stereo not shown) [Example P21] | 10.1 nM | 166 nM |  |  |  |  |
| O=C(O)c1cccc(-c2cnn(C(CC3CC3)c3ccc(-c4cc(Cl)ccc4-n4cnnn4)c[n+]3[O-])c2)c1 (stereo not shown) [Example P3] | 9.4 nM | 98.2 nM |  |  |  |  |
| O=C(O)c1ccc(-c2cnn(C(Cc3ccc(F)cc3)c3ccc(-c4cc(Cl)ccc4-n4cnnn4)c[n+]3[O-])c2)cc1 (stereo not shown) [Example P7] | 0.8 nM | 4.1 nM | 1.3 nM |  |  |  |
| O=C(O)c1cccc(-c2cnn(C(CC3CC3)c3c(F)cc(-c4cc(Cl)ccc4-n4cnnn4)c[n+]3[O-])c2)c1 (stereo not shown) [Example P11] | 6.9 nM | 81.4 nM |  |  |  |  |
| Nc1ccc(-c2cnn(C(CC3CC3)c3ccc(-c4c(-n5cnnn5)ccc(Cl)c4F)c[n+]3[O-])c2)c[n+]1[O-] (stereo not shown) [Example P25] | 9 nM | 749 nM |  |  |  |  |
| COC(=O)Nc1ccc(-c2cnn(C(Cc3ccc(F)cc3)c3ccc(-c4cc(Cl)ccc4C#N)c[n+]3[O-])c2)cc1 (stereo not shown) [Example Q1] | 621 nM | 355 nM |  |  |  |  |
| CC(=O)Nc1ccc(-c2cnn(C(CC3CC3)c3ccc(-c4c(-n5cnnn5)ccc(Cl)c4F)c[n+]3[O-])c2)cc1 (stereo not shown) [Example P23] | 4.4 nM | 66.1 nM |  |  |  |  |
| CN1CCc2cc(-c3cnn(C(CC4CC4)c4ccc(-c5cc(Cl)ccc5-n5cnnn5)c[n+]4[O-])c3)ccc2C1=O (stereo not shown) [Example P15] | 55.6 nM | 598 nM |  |  |  |  |
| COC(=O)Nc1ccc(-c2cnn(C(Cc3ccccc3)c3ccc(-c4cc(Cl)c(F)cc4-n4cnnn4)c[n+]3[O-])c2)cc1 (stereo not shown) [Example P46] | 21.5 nM | 341 nM |  |  |  |  |
| Nc1ccc(-c2cnn(C(CC3CC3)c3ccc(-c4cc(Cl)ccc4-n4cnnn4)c[n+]3[O-])c2)c(Cl)n1 (single isomer, unassigned) [Example P49] | 3.4 nM | 79.2 nM |  |  |  |  |
| O=C(O)c1ccc(-c2cnn(C(c3cn(-c4ccccc4)nn3)c3ccc(-c4c(-n5cnnn5)ccc(Cl)c4F)c[n+]3[O-])c2)cc1 (stereo not shown) [Example P35] | 169 nM | 800 nM |  |  |  |  |
| CC(C)(C)OCCC(c1ccc(-c2cc(Cl)ccc2-n2cnnn2)c[n+]1[O-])n1cc(-c2ccc(C(=O)O)cc2)cn1 (stereo not shown) [Example P8] | 2.7 nM | 329 nM |  |  |  |  |
| O=C(O)c1ccc(-c2cnn(C(CC3CC3)c3ccc(-c4c(-n5cnnn5)ccc(Cl)c4F)c[n+]3[O-])c2)cc1 (stereo not shown) [Example P9] | 0.29 nM | 37 nM |  |  |  |  |
| O=C(O)c1ccc(-c2cnn(C(CC3CC3)c3ccc(-c4cc(Cl)ccc4-n4cc(Cl)nn4)c[n+]3[O-])c2)cc1 (stereo not shown) [Example P4] | 9.9 nM | 517 nM |  |  |  |  |
| [O-][n+]1cc(-c2cc(Cl)ccc2-n2cnnn2)ccc1C(Cc1ccc(F)cc1)n1cc(-c2ccc(F)cc2)cn1 (stereo not shown) [Example P22] | 10 nM | 44.2 nM |  |  |  |  |
| O=C1OCc2cc(-c3cnn(C(CC4CC4)c4ccc(-c5cc(Cl)ccc5-n5cnnn5)c[n+]4[O-])c3)ccc21 (stereo not shown) [Example P16] | 56.1 nM | 401 nM |  |  |  |  |
| CC(N)c1ccc(-c2cnn(C(Cc3ccccc3)c3ccc(-c4cc(Cl)ccc4-n4cnnn4)c[n+]3[O-])c2)cc1 (stereo not shown) [Example P47] | 22.2 nM | 405 nM |  |  |  |  |
| Nc1ccc(-c2cnn(C(CC3CC3)c3ccc(-c4c(-n5cnnn5)ccc(Cl)c4F)c[n+]3[O-])c2)cn1 (stereo not shown) [Example P24] | 4.9 nM | 114 nM |  |  |  |  |
| CS(=O)(=O)NC(=O)c1ccc(-c2cnn(C(CC3CC3)c3ccc(-c4cc(Cl)ccc4-n4cnnn4)c[n+]3[O-])c2)cc1 (stereo not shown) [Example P18] | 3.1 nM | 396 nM |  |  |  |  |
| O=C(O)c1ccc(-c2cnn(C(Cc3ccc(F)cc3)c3ccc(-c4cc(Cl)ccc4OCC(F)(F)F)c[n+]3[O-])c2)cc1 (stereo not shown) [Example Q2] | 41 nM | 674 nM |  |  |  |  |

Now from value to compound:

| IC50 (Factor XIa [1]) | IC50 (human plasma kallikrein; [3]) | IC50 (human plasma kallikrein; [4]) | Km (Factor XIa [2]; peptide substrate of FXIa) | kcat (Factor XIa [2]; peptide substrate of FXIa) | Ki (Factor XIa [2]; substrate inhibition constant) | Compound |
| --- | --- | --- | --- | --- | --- | --- |
| 3.8 nM | 25.8 nM |  |  |  |  | COC(=O)Nc1ccc(-c2cnn(C(Cc3ccccc3)c3ccc(-c4cc(Cl)ccc4-n4cnnn4)c[n+]3[O-])c2)cc1 (stereo not shown) [Example P39] |
| 71.7 nM | 370 nM |  |  |  |  | CN1Cc2cc(-c3cnn(C(CC4CC4)c4ccc(-c5cc(Cl)ccc5-n5cnnn5)c[n+]4[O-])c3)ccc2C1=O (stereo not shown) [Example P12] |
| 2.1 nM | 65.8 nM | 85.2 nM |  |  |  | O=C(O)c1ccc(-c2cnn([C@H](CC3CC3)c3ccc(-c4cc(Cl)ccc4-n4cnnn4)c[n+]3[O-])c2)cc1 [Example P6] |
| 2.6 nM | 124 nM | 157 nM |  |  |  | O=C(O)c1ccc(-c2cnn(C(CC3CC3)c3ccc(-c4cc(Cl)ccc4-n4cnnn4)c[n+]3[O-])c2)cc1 (stereo not shown) [Example P1] |
| 94.4 nM | 966 nM |  |  |  |  | COC(=O)Nc1ccc(-c2cnn(C(CC3CC3)c3ccc(-c4cc(Cl)ccc4-n4cc(Cl)nn4)c[n+]3[O-])c2)cc1 (stereo not shown) [Example P14] |
| 3.4 nM | 135 nM |  |  |  |  | Nc1ccc(-c2cnn(C(CC3CC3)c3ccc(-c4cc(Cl)ccc4-n4cnnn4)c[n+]3[O-])c2)c(Cl)n1 (stereo not shown) [Example P19] |
| 3.2 nM | 56 nM |  |  |  |  | COCCC(c1ccc(-c2c(-n3cnnn3)ccc(Cl)c2F)c[n+]1[O-])n1cc(-c2ccc(NC(=O)OC)cc2)cn1 (racemic) [Example P38] |
| 3.3 nM | 57.3 nM |  |  |  |  | COC(=O)Nc1ccc(-c2cnn(C(CC3CC3)c3c(F)cc(-c4c(-n5cnnn5)ccc(Cl)c4F)c[n+]3[O-])c2)cc1 (stereo not shown) [Example P30] |
|  |  |  | 12.4 µM | 0.86 s⁻¹ | 61600 nM | 5Fam-KLTRAETV-K5Tamra (5FAM-KLTRAETV-{Lys(5-TAMRA)}; SMILES CC(C)C[C@H](NC(=O)[C@H](CCCCN)NC(=O)c1ccc2c(c1)C(=O)OC21c2ccc(O)cc2Oc2cc(O)ccc21)C(=O)N[C@H](C(=O)N[C@@H](CCCNC(=N)N)C(=O)N[C@@H](C)C(=O)N[C@@H](CCC(=O)O)C(=O)N[C@H](C(=O)N[C@H](C(=O)N[C@@H](CCCCNC(=O)c1ccc(-c2c3ccc(N(C)C)cc3[o+]c3cc(N(C)C)ccc23)c(C(=O)[O-])c1)C(=O)O)C(C)C)[C@@H](C)O)[C@@H](C)O) ["The peptide substrate ; (purchased from New England Peptide)", "designed with a fluorophore-quencher pair", based on the Arg146 cleavage site of FXI] |
| 3.5 nM | 46.5 nM |  |  |  |  | Nc1ccc(-c2cnn(C(Cc3ccccc3)c3ccc(-c4cc(Cl)ccc4-n4cnnn4)c[n+]3[O-])c2)c(Cl)n1 (stereo not shown) [Example P50] |
